Source: patent publication US20240342292A1, “Compounds for the Degradation of EGFR Kinase” (BeiGene Switzerland GmbH, priority 2021, published 2024)

Columns and labels:
Del19/T790M/C797S EGFR = experiment: EGFR degradation HTRF assay in H1975-clone #28 (DTC) cells; type: cell-based; conditions: H1975 # 28 DTC (Del19/T790M/C797S), 16h treatment; for DC50: HTRF; for Dmax (%): maximum percentage of degradation
Outline: (§1)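 Engineered H1975 lines (exogenous mutant EGFR, endogenous copies knocked out, single clones sequence-verified); 16 h compound, 37 °C/5% CO2, 0.2% DMSO; top 10 uM, 5-fold, 8 pts; lysis 1 h RT, HTRF antibodies overnight RT; 4-parameter logistic fit → DC50.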

L858R/T790M/C797S EGFR = target: T1, L858R/T790M/C797S EGFR (Homo sapiens, UniProt P00533, C797S/L858R/T790M); experiment: EGFR degradation HTRF assay in H1975-clone #25 (LTC) cells; type: cell-based; conditions: 16h treatment; for DC50: H1975 # 25-LTC (L858R/T790M/C797S), HTRF; for Dmax: NCI-H1975, H1975 # 25-LTC (L858R/T790M/C797S), maximum percentage of degradation
T1 construct: expressed in transfected cells; host or cells: H1975 clone #25 (lentiviral over-expression, endogenous EGFR knocked out by sgRNA)
Outline: as §1

T1 sequence (P00533 25-1210 T790M/C797S/L858R): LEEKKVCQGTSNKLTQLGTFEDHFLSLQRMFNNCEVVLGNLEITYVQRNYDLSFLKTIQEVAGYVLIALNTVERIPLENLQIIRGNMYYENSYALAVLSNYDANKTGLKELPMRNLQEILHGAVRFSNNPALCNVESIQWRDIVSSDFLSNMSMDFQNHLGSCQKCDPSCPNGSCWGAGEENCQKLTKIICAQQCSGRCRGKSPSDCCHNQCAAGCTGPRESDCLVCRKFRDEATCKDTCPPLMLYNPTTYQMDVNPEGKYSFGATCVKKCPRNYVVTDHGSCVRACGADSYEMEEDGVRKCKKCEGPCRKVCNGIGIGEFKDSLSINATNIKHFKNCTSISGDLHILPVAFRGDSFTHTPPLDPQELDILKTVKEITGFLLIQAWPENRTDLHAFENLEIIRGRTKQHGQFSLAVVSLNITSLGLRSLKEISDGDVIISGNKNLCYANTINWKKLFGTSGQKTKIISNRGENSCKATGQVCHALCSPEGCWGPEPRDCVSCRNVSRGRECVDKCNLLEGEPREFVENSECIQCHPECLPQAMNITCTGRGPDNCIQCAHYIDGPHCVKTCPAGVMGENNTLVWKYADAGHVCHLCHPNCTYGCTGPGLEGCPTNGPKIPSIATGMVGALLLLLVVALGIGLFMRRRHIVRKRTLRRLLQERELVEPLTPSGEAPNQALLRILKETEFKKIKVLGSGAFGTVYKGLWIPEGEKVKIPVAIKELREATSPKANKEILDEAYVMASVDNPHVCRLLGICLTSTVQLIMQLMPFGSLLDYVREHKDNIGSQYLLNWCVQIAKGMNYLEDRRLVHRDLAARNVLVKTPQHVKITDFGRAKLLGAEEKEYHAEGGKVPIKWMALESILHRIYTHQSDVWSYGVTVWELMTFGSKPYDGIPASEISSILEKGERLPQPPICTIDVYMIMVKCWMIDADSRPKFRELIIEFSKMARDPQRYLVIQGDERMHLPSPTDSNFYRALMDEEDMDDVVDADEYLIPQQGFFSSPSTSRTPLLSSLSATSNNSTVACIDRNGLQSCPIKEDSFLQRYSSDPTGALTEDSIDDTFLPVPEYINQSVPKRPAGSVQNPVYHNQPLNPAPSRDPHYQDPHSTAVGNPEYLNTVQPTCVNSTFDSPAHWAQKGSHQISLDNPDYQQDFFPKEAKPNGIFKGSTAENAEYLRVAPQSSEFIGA

Row | Structure (SMILES) | DC50 (Del19/T790M/C797S EGFR) | Dmax (%) (Del19/T790M/C797S EGFR) | DC50 (L858R/T790M/C797S EGFR) | Dmax (L858R/T790M/C797S EGFR)
1 | Cc1cc2cc(n1)-c1cnn(C)c1OCCC[C@@H](C)CN1/C(=N/C2=O)Nc2ccc(C(=O)OC3CCN(CCc4cc(F)c([C@H]5CCC(=O)NC5=O)c(F)c4)CC3)cc21 [Example 313, 1-(4-((R)-2,6-dioxopiperidin-3-yl)-3,5-difluorophenethyl)piperidin-4-yl (R,E)-1^1,2^6,7-trimethyl-3-oxo-5^2,5^3-dihydro-1^1H,5^1H-11-oxa-4-aza-5(2,1)-benzo[d]imidazola-2(2,4)-pyridina-1(4,5)-pyrazolacycloundecaphane-5^6-carboxylate] | 0.967 nM | 70.56% | 1.25 nM | 81%
2 | CO[C@@H]1CN(CCc2cc(F)c([C@H]3CCC(=O)NC3=O)c(F)c2)CC[C@@H]1NC(=O)c1ccc2c(c1)N1C[C@H](C)CCCOc3c(cnn3C)-c3cc(cc(C)n3)C(=O)/N=C/1N2 [Example 245, (R,E)-N-((3R,4S)-1-(4-((R)-2,6-dioxopiperidin-3-yl)-3,5-difluorophenethyl)-3-methoxypiperidin-4-yl)-1^1,2^5,7-trimethyl-3-oxo-5^2,5^3-dihydro-1^1H,5^1H-11-oxa-4-aza-5(2,1)-benzo[d]imidazola-2(2,4)-pyridina-1(4,5)-pyrazolacycloundecaphane-5^6-carboxamide] | 0.534 nM | 81.9% | 0.487 nM | 94%
3 | Cc1cc2cc(n1)-c1cnn(C)c1OCCC[C@@H](C)CN1/C(=N/C2=O)Nc2ccc(C(=O)N(C)[C@@H]3CCN(CCc4cc(F)c([C@H]5CCC(=O)NC5=O)c(F)c4)[C@H](C)C3)cc21 [Example 268, (R,E)-N—((2R,4R)-1-(4-((R)-2,6-dioxopiperidin-3-yl)-3,5-difluorophenethyl)-2-methylpiperidin-4-yl) -N,1^1,2^6,7-tetramethyl-3-oxo-5^2,5^3-dihydro-1^1H,5^1H-li-oxa-4-aza-5(2,1)-benzo[d]imidazola-2(2,4)-pyridina-1(4,5)-pyrazolacycloundecaphane-5^6-carboxamide] | 0.439 nM | 81.98% | 0.53 nM | 89.8%
4 | Cc1cc2cc(n1)-c1cnn(C)c1OCCC[C@@H](C)CN1/C(=N/C2=O)Nc2ccc(N3CCC(NC4CCN(c5cc(F)c([C@H]6CCC(=O)NC6=O)c(F)c5)CC4)CC3)cc21 [Example 401, (R)-3-(2,6-difluoro-4-(4-((1-((R,E)-1^1,2^6,7-trimethyl-3-oxo-5^2,5^3-dihydro-1^1H,5^1H-11-oxa-4-aza-5(2,1)-benzo[d]imidazola-2(2,4)-pyridina-1(4,5)-pyrazolacycloundecaphane-5^6-yl)piperidin-4-yl)amino)piperidin-1-yl)phenyl)piperidine-2,6-dione] | 3.18 nM | 70.19% | 1.37 nM | 81.1%
5 | Cc1cc2cc(n1)-c1cnn(C)c1OCCC[C@@H](C)CN1/C(=N/C2=O)Nc2ccc(C(=O)N(C)C3C[C@H]4CN(CCc5cc(F)c([C@H]6CCC(=O)NC6=O)c(F)c5)C[C@@H]4C3)cc21 [Example 293, (R,E)-N—((3aR,6aR)-2-(4-((R)-2,6-dioxopiperidin-3-yl)-3,5-difluorophenethyl)octahydrocyclopenta[c]pyrrol-5-yl)-N,1^1,2^6,7-tetramethyl-3-oxo-5^2,5^1-dihydro-1^1H,5^1H-11-oxa-4-aza-5(2,1)-benzo[d]imidazola-2(2,4)-pyridina-1(4,5)-pyrazolacycloundecaphane-5^6-carboxamide] | 0.997 nM | 75.49% | 1.56 nM | 86.3%
6 | Cc1cc2cc(n1)-c1cnn(C)c1OCCC[C@@H](C)CN1/C(=N/C2=O)Nc2ccc(C(=O)N[C@@H]3CCN(CCc4cc(F)c([C@H]5CCC(=O)NC5=O)c(F)c4)C[C@@H]3F)cc21 [Example 246, (R,E)-N-((3S,4R)-1-(4-((R)-2,6-dioxopiperidin-3-yl)-3,5-difluorophenethyl)-3-fluoropiperidin-4-yl)-1^1,2^6,7-trimethyl-3-oxo-5^2,5^3-dihydro-1^1H,5^1H-11-oxa-4-aza-5(2,1)-benzo[d]imidazola-2(2,4)-pyridina-1(4,5)-pyrazolacycloundecaphane-5^6-carboxamide] | 0.602 nM | 85.73% | 0.613 nM | 93.8%
7 | Cc1cc2cc(n1)-c1cnn(C)c1OCCC[C@@H](C)CN1/C(=N/C2=O)Nc2ccc(CCN3CCN(c4cc(F)c([C@H]5CCC(=O)NC5=O)c(F)c4)CC3)cc21 [Example 446, (R)-3-(2,6-difluoro-4-(4-(2-((R,E)-1^1,2^6,7-trimethyl-3-oxo-5^2,5^3-dihydro-1^1H,5^1H-11-oxa-4-aza-5(2,1)-benzo[d]imidazola-2(2,4)-pyridina-1(4,5)-pyrazolacycloundecaphane-5^6-yl)ethyl)piperazin-1-yl)phenyl)piperidine-2,6-dione] | 1.19 nM | 76.42% | 0.696 nM | 91.8%
8 | Cc1cc2cc(n1)-c1cnn(C)c1OCCC[C@@H](C)CN1/C(=N/C2=O)Nc2ccc(C(=O)N(C)[C@@H]3CCN(C4CN(c5cc(F)c([C@H]6CCC(=O)NC6=O)c(F)c5)C4)C[C@@H]3F)cc21 [Example 382, (R,E)-N—((3S,4R)-1-(1-(4-((R)-2,6-dioxopiperidin-3-yl)-3,5-difluorophenyl)azetidin-3-yl)-3-fluoropiperidin-4-yl)-N,1^1,2^6,7-tetramethyl-3-oxo-5^2,5^3-dihydro-1^1H,5^1H-11-oxa-4-aza-5(2,1)-benzo[d]imidazola-2(2,4)-pyridina-1(4,5)-pyrazolacycloundecaphane-5^5-carboxamide] | 0.617 nM | 86.76% | 0.233 nM | 87.5%
9 | Cc1cc2cc(n1)-c1cnn(C)c1OCCC[C@@H](C)CN1/C(=N/C2=O)Nc2ccc(CN3CCN(C(=O)C4CCN(c5cc(F)c([C@H]6CCC(=O)NC6=O)c(F)c5)CC4)CC3)cc21 [Example 162, (R)-3-(2,6-difluoro-4-(4-(4-(((R,E)-1^1,2^6,7-trimethyl-3-oxo-5^2, 5^3-dihydro-1^1H,5^1H-11-oxa-4-aza-5(2,1)-benzo[d]imidazola-2(2,4)-pyridina-1(4,5)-pyrazolacycloundecaphane-5^6-yl)methyl)piperazine-1-carbonyl)piperidin-1-yl)phenyl)piperidine-2,6-dione] | 0.557 nM | 71.45% | 0.598 nM | 79.1%
10 | Cc1cc2cc(n1)-c1cnn(C)c1OCCC[C@@H](C)CN1/C(=N/C2=O)Nc2cc(C)c(C(=O)N(C)C3CCN(CCc4cc(F)c([C@H]5CCC(=O)NC5=O)c(F)c4)CC3)cc21 [Example 336, (R,E)-N-(1-(4-((R)-2,6-dioxopiperidin-3-yl)-3,5-difluorophenethyl)piperidin-4-yl)-N,1^1,2^6,5^5,7-penta methyl-3-oxo-5^2,5^3-dihydro-1^1H,5^1H-11-oxa-4-aza-5(2,1)-benzo[d]imidazola-2(2,4)-pyridina-1(4,5)-pyrazolacycloundecaphane-5^6-carboxamide] | 0.304 nM | 72.28% | 0.386 nM | 88.4%
